COc1ccc2c3c1OC1C(=O)C(COS(=O)(=O)c4ccc(C)cc4)(COS(=O)(=O)c4ccc(C)cc4)CC4C(C2)N(C)CCC314 (centres undefined) gave a melting point of 150 to 153 °C. For O=c1[nH]c2ncc(-c3ccccn3)nc2n1CC1CCCCC1, the melting point was 194 to 196 °C. Work on CSc1sc(C(=O)O)c2c1-c1oc(C)nc1CC2 yielded a melting point of over 300 °C. Compound CC(C)(C)OC(=O)N[C@H](CCCNC(N)=N[N+](=O)[O-])C(=O)NCc1ccc(CNC(N)=O)cc1 has a melting point of 172 °C. For COc1c(S(N)(=O)=O)c(C)nn1C, the melting point was 144 to 146 °C. With COc1ccc(-c2oc3c(C(=O)O)cccc3c(=O)c2C)cc1 the melting point was 266 to 267 °C. For O=C(c1ccccc1)c1cc(Cc2ccccc2)c(O)c2ccccc12, the melting point was 152 to 155 °C. Work on CCCCCCCCCCCCCCCCCCNC(=O)NCCCS(C)=O (centres undefined) yielded a melting point of 105 °C. COC(=O)C=CC(C)C1=CCC2C3CC=C4CC(OC(C)=O)CCC4(C)C3CCC12C (centres undefined) gave a melting point of 121 to 122 °C. Work on CC(C)(C)c1cccc(C(=O)O)c1 yielded a melting point of 96 to 97 °C. With Cc1nc(NCC(=O)c2ccccc2)c2cc(C)sc2n1 the melting point was 159 °C. Work on CC(=O)N1CC(NC(=O)Nc2cccc(C)c2)C(=O)N(CC(=O)c2ccccc2C)c2ccccc21 (centres undefined) yielded a melting point of 215 to 217 °C. Work on COc1ccc(-c2nccs2)cc1OC1CCCC1 yielded a melting point of 72 to 75 °C. Compound CN1CC(C(=O)CN2CCOCC2)CC2c3cccc4c3c(cn4C)CC21 (centres undefined) has a melting point of 198 to 200 °C. In the case of COc1nc(C)c(C(C)O)cc1NC(=O)N1CCN(c2cc(C)cc(C)c2)CC1 (centres undefined), the melting point is reported as 153 to 154 °C. Compound CCCCc1nc(Cl)c(CC(=O)O)n1Cc1ccc(OCc2ccccc2C(=O)O)cc1 has a melting point of 170 to 172 °C. For O=C1CCC2=C1C(c1ccc(Br)s1)C1=C(CCS1)N2 (centres undefined), the melting point was 246 to 247 °C. In the case of CS(=O)(=O)Nc1ccc(NC(=O)CN2CCC(Cc3ccc(F)cc3)CC2)cc1, the melting point is reported as 169 to 171 °C. For Cc1oc(-c2ccc(F)cc2)cc1COc1cccc(CSC(C)(C)C(=O)O)c1, the melting point was 134 to 135 °C. Work on O=C(NC(=O)N1CCSC1c1ccccc1OCCN1CCN(c2cccc(F)c2)CC1)c1ccccc1 (centres undefined) yielded a melting point of 125 to 127 °C. CC(C)=Nn1c(S)nnc1-n1cccn1 gave a melting point of 132 to 138 °C. Work on Cc1nc2ccc3c(c2o1)OC(CN1C2CCC1CC(O)(c1cccc(C(F)(F)F)c1)C2)CO3 (centres undefined) yielded a melting point of 148 to 150 °C. Compound Cn1ncnc1-c1cc(S(C)=O)c2[nH]c(=O)ccc2c1 (centres undefined) has a melting point of 224 to 227 °C. With O=C(O)CN1C(=O)C2(COc3cc4c(cc32)OCCO4)c2ccccc21 (centres undefined) the melting point was 193 to 196 °C. With Cc1cc2c(s1)Nc1ccccc1N=C2N1CCN(C)[C@@H](COc2ccccc2)C1 the melting point was 74 to 88 °C. CCc1cccc(C)c1CNc1cc(CNC)cn2nc(C)nc12 showed a melting point of 179 °C. CC(C)(C)OC(=O)N1CCN(C[C@H](O)Cn2c3ccccc3c3cc(Br)ccc32)CC1 showed a melting point of 75 to 85 °C. COc1ccc(C(=O)CC(c2cccs2)C(C)(C)[N+](=O)[O-])cc1 (centres undefined) showed a melting point of 90 °C. CCCSc1cc2c(c3c1OC(C)(C)C3)C(c1cccc(C(=O)OCC)c1)=NC(C)(C)C2 gave a melting point of 83 to 84 °C. Work on Cn1cc(NC(=O)c2cc(NC(=O)c3cc([N+](=O)[O-])cn3C)cn2C)cc1C(=O)NCCN1CCOCC1 yielded a melting point of over 230 °C. Work on COc1ccc2c(c1F)OCc1c(C(F)(F)F)nn(-c3ccc(S(N)(=O)=O)cc3)c1-2 yielded a melting point of 133 to 138 °C. Work on COc1cc(C(=O)O)c(Br)cc1C(=O)O yielded a melting point of 275 °C. Compound CCCOc1cccc(-c2nc(=O)c3ccccc3s2)n1 has a melting point of 138 to 140 °C. For S=C(NC1CCCc2sccc21)C1CCNCC1 (centres undefined), the melting point was 102 °C. In the case of Cc1ccc(S(=O)(=O)Oc2cccc3c2CCCN3)cc1, the melting point is reported as 112 to 113 °C. Work on Cc1nn(C)c2c1N(C(=O)CN1CCCC1)c1ccccc1NC2=O yielded a melting point of 114 to 116 °C. With COc1cc(N)c(S(C)(=O)=O)cc1C(=O)NCC1CCCN1C (centres undefined) the melting point was 190 to 191 °C. CCCCCCCCCCCCCCC(=O)C(=O)N[C@@H](CCCC)C(=O)NCC(=O)OC gave a melting point of 65 to 67 °C. Compound CCOC(=O)C(CCCCCCl)=NO has a melting point of 36 to 38 °C. CN1CCCC(OC(=O)Nc2ccc(C(F)(F)F)cc2)C1 (centres undefined) showed a melting point of 119 to 120 °C. Cc1cc([N+](=O)[O-])cc(C)c1Oc1ccc(OCc2ccccc2)c(C(C)C)c1 gave a melting point of 99 to 100 °C. Work on O=C(O)CC1(CCl)OCCO1 yielded a melting point of 64 to 65 °C. With COc1cccc(C(=O)OCC2(COC(=O)c3cccc(OC)c3)c3ccccc3-c3ccccc32)c1 the melting point was 129 to 130 °C. In the case of COc1cc(C(=O)N2CCC(CCN3CCCN(c4nc5ccccc5n4CCOCC#N)CC3)(c3ccccc3)C2)cc(OC)c1OC (centres undefined), the melting point is reported as 134 to 148 °C. For COC(=O)CSc1cccc(CN)c1, the melting point was 72 °C. In the case of FC1=Cc2ccccc2Nc2ccccc21, the melting point is reported as 69 to 72 °C. CC(C)c1ccc(N(Cc2ccc(N(C)C)cc2)C(=O)C2CC(=O)Nc3ccccc32)cc1 (centres undefined) showed a melting point of 170 °C. C=CCOC(=O)c1cccc2c1N=C(c1ccccc1Cl)CC2=O showed a melting point of 121 °C. Clc1ccc2c(c1)N(c1ncnc3cc(Cl)ccc13)CC2 showed a melting point of 189 °C. Clc1ccc(-c2cc3ccccc3s2)cc1 showed a melting point of 193 to 194 °C. For CC(C)(C)OC(=O)NC1CCCC2(CCCC2)NC1=O (centres undefined), the melting point was 180 to 181 °C. Work on N#Cc1ccc(CC(NC(=O)OCc2ccccc2)C(=O)Nc2cccc(C(=O)NCCC(=O)OCc3ccccc3)c2)cc1 (racemic) yielded a melting point of 145 to 146 °C. Cc1ccc(CO)cc1NC(=O)CC12CC3CC(CC(C3)C1)C2 gave a melting point of 190 °C. Work on CCc1csc(CCc2ccc(NC(=O)/C=C/c3cnn(C)c3-c3ccc(F)cc3)cc2)n1 yielded a melting point of 200 to 201 °C. COCC1CN(c2ccc3c(c2)CCC(CCC(F)(F)F)O3)C(=O)O1 (centres undefined) gave a melting point of 110 to 111 °C. O=S(=O)(Nc1ccc2c(OCc3nc(-c4ccc(F)cc4)no3)cccc2c1)C(F)(F)F gave a melting point of 131 to 132 °C. O=C1c2ccccc2CS(=O)(=O)N1CC(O)CN1CCOCC1 (centres undefined) gave a melting point of 175 to 177 °C. For O=C(NCN1CCCCC1)Nc1ccc(-c2cnc(CSCCOc3ccccc3)o2)cc1, the melting point was 84 to 87 °C. In the case of CCCCOc1cc(/C=C(\OCC)C(=O)O)ccc1OCCc1ccc(NS(C)(=O)=O)cc1, the melting point is reported as 141 °C. For NC(=O)[C@@H]1[C@H]2CC[C@H](C2)[C@@H]1Nc1nc(Nc2ccc3c(c2)CCC(NCC(F)(F)F)CC3)ncc1Cl (some centres undefined), the melting point was 218 °C. CC(=O)N(C(C)=O)c1cc2c(cc1Cl)C(=O)C1(CCOC1=O)O2 (centres undefined) showed a melting point of 181 to 185 °C. For CC1=NN(C)C(=O)C1(Cl)C(Cl)c1ccc(Cl)cc1Cl (centres undefined), the melting point was 113 to 115 °C. CCCCCCCCCC(=O)Nc1c2c(nc3ccccc13)CCCC2 gave a melting point of 123 to 126 °C. CC(C)c1cn2nc(Cl)ccc2n1 gave a melting point of 106 to 108 °C. In the case of O=C1CCC(N2Cc3c(OCc4ccc(CN5CCN(CC(F)(F)F)CC5)cc4)cccc3C2=O)C(=O)N1 (centres undefined), the melting point is reported as 133 to 135 °C. Work on CCCc1c(CSc2ncccc2OCC(=O)OCC)ccc(C(C)=O)c1O yielded a melting point of 98 to 100 °C. With CN1CCN(CCCNc2ncc3cc(-c4c(Cl)cccc4Cl)c(NC(=O)Nc4ccc(C(F)(F)F)cc4)nc3n2)CC1 the melting point was 146 to 151 °C. Nc1c2c(nc3[nH]c4ccccc4c13)CCCC2=O gave a melting point of over 300 °C. Work on NC(=O)CSC(=O)c1ccco1 yielded a melting point of 126 to 128 °C. In the case of O=C(N1CCN(c2ccccc2)CC1)N1CC(Oc2ccc(Br)cc2)C1, the melting point is reported as 160 to 161 °C. In the case of CCCSc1nc2cc(C)c(C)cc2[nH]1, the melting point is reported as 122 to 123 °C. For CC(CCC1(C(N)=O)c2ccccc2-c2ccccc21)N(C)C (centres undefined), the melting point was 104 to 106 °C. CCS(=O)(=O)c1ccc(SC2SCC(OC(C)=O)C(OC(C)=O)C2OC(C)=O)cc1 (centres undefined) gave a melting point of 136 to 137 °C. CC(=O)c1cc2c(s1)C(C)(C)CCC2(C)C showed a melting point of 53 to 55 °C. For N#Cc1ccc(CN(O)Cc2ccc(C#N)cc2)cc1, the melting point was 172 to 175 °C. In the case of CCCOC(=O)c1cc(-n2c(OC)nc(C(F)(F)F)cc2=O)c(F)cc1Cl, the melting point is reported as 55 to 57 °C. Work on FC(F)(F)c1cc(Cl)c(-n2cc(I)nn2)c(Cl)c1 yielded a melting point of 194 to 195 °C. With Cn1cc(CCl)c(-c2ccc(Cl)cc2C(=O)c2ccccc2F)n1 the melting point was 153 to 155 °C. CCOC(=O)C(=CNC1CC1)C(=O)c1c(C)c(F)c(F)c(F)c1F gave a melting point of 72 to 74 °C. CC(C)(C)OC(=O)[C@@H](CCCOS(=O)(=O)c1ccc2ccccc2c1)C[C@H](NC(c1ccccc1)(c1ccccc1)c1ccccc1)C(=O)OC(C)(C)C showed a melting point of 119 °C. Cc1cc(C)c2nc(NCCC(N)=O)n(Cc3nc(C)ccc3O)c2c1 gave a melting point of 229 °C. With O=C(CN1CCc2c([nH]c3ccccc23)C1c1ccccc1)OCc1ccccc1 (centres undefined) the melting point was 131 to 132 °C. With O=C(NCCCc1ccccc1)Oc1ccccc1 the melting point was 55 to 56 °C. For Cn1c(NN)nc2ccc(O)cc2c1=O, the melting point was over 300 °C. Work on NS(=O)(=O)c1ccc(-n2nc(C(F)(F)F)cc2OS(=O)(=O)C(F)(F)F)cc1 yielded a melting point of 114 to 115 °C. Compound Cc1[nH]c(=O)ccc1-c1cccc(O)c1 has a melting point of 285 to 288 °C. For CC(CCNC1=Nc2ccc(Br)c3cccc1c23)n1ccnc1 (centres undefined), the melting point was 240 to 241 °C. Nc1ccccc1C(=O)NCCCn1ccnc1 gave a melting point of 107 to 110 °C. With CC(C)(C)C(NC(=O)c1cccc(I)c1)Nc1c(Nc2cccnc2)c(=O)c1=O (centres undefined) the melting point was 234 to 236 °C. Work on CC(C)c1ccc(-c2nnc(-c3ccc(C(=O)O)cc3)s2)cc1 yielded a melting point of over 300 °C. O=C(N[C@H](Cc1ccc(C(F)(F)F)cc1)[C@@H](O)c1ccc(Cl)nc1)c1ccc(F)c2ccccc12 (racemic) gave a melting point of 188 to 189 °C. In the case of CN(C)C(=O)c1cc(C(=O)O)c2cc(Cc3ccc(F)cc3)cnc2c1O, the melting point is reported as 214 to 216 °C. With CC1(C)CN(C2CCN(CCc3ccc(F)cc3)CC2)c2cc(CN)ccc21 the melting point was 131 to 133 °C. Work on COc1ccc2c(c1)C1=NNC(c3ccncc3)C1CCC2 (centres undefined) yielded a melting point of 162 to 166 °C. O=c1[nH]c2ccc(CCN3CCN(c4ncnc5ccccc45)CC3)cc2o1 showed a melting point of 200 °C. CCOC(=O)c1ncn2c1CNc1ccccc1-2 showed a melting point of 248 to 250 °C. Work on O=C(O)CN(C(=O)OCc1ccccc1)C1CCCC1 yielded a melting point of 110 °C. Work on Cc1cc(C)nc(NC(=O)Cc2c(Cl)sc3ccccc23)c1 yielded a melting point of 123 to 124 °C. In the case of CC(C)(C)c1cc(C2CC(=O)N(CCCCCCN3C(=O)CC(c4cc(C(C)(C)C)c(O)c(C(C)(C)C)c4)C3=O)C2=O)cc(C(C)(C)C)c1O (centres undefined), the melting point is reported as 190 to 193 °C.

From a melting point compilation (Tetko et al.; mined from patent text by program, amines drawn as free bases though some values may be those of a salt)
